Reference: patent publication US20090227575A1, “7H-PYRROLO[2,3-H]QUINAZOLINE COMPOUNDS, THEIR USE AS mTOR KINASE AND PI3 KINASE INHIBITORS, AND THEIR [sequence]” (Wyeth, priority 2008, published 2009)

Experiments:
Type in all cases: biochemical
human SMG-1 (hSMG-1) = human SMG-1 (hSMG-1) (Homo sapiens, UniProt Q96Q15); assay: hSMG-1 kinase assay (DELFIA); details: read-out: hSMG1 IC50
Human mTOR = Human mTOR (Homo sapiens, UniProt P42345); assay: mTOR kinase assay (DELFIA format, purified enzyme); set-up: FLAG; details: read-out: TOR Kinase IC50
PI3K-gamma = PI3K-gamma (Homo sapiens, UniProt P48736); assay: PI3K-gamma fluorescence polarization assay; details: read-out: PI3 Kinase γ IC50
Chain of PI3K-gamma (P48736 whole entry, species assumed): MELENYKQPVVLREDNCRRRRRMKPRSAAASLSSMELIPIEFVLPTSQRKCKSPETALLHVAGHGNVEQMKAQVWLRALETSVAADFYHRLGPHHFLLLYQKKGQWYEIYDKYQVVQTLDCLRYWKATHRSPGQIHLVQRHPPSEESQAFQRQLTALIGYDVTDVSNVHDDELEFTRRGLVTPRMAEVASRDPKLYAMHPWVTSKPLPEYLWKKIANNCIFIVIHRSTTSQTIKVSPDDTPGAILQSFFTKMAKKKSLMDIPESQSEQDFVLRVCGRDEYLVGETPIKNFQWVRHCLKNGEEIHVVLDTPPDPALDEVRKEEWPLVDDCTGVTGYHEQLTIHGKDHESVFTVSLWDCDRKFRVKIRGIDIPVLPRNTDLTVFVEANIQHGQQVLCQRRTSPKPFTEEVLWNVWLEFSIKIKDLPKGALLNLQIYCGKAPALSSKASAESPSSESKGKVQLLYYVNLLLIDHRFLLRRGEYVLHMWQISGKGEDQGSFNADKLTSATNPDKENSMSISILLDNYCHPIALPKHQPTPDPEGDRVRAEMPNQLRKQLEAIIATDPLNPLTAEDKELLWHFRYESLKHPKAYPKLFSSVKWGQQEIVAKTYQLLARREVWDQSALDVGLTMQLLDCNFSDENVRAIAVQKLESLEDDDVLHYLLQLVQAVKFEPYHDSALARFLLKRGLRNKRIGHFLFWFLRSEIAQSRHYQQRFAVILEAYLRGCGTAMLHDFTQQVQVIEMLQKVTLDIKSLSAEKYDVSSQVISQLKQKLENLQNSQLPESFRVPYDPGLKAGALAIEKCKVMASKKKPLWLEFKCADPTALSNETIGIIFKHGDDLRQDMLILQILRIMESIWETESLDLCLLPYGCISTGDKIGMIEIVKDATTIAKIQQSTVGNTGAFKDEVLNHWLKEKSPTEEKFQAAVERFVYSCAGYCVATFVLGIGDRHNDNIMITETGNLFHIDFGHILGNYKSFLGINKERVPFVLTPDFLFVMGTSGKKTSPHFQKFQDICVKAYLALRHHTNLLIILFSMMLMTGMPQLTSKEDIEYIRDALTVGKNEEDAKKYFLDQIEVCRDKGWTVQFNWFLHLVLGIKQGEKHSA
Procedure, shortened: (§1)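 Diluted enzyme and compound (1% DMSO) reacted with diC8 PIP2 and ATP substrate in 20 mM HEPES pH 7.5, 2 mM MgCl2, 0.05% CHAPS for 30–60 min. Stopped with EDTA buffer holding 10 nM TAMRA probe and 70 nM GST-GRP. FP (mP) read after 30–90 min against zero-time and no-enzyme controls.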

PI3K-alpha = PI3K-alpha (Homo sapiens, UniProt P42336); assay: PI3K-alpha fluorescence polarization assay; details: read-out: PI3 Kinase α IC50
Procedure, shortened: as §1

Chain of human SMG-1 (hSMG-1) (Q96Q15 whole entry): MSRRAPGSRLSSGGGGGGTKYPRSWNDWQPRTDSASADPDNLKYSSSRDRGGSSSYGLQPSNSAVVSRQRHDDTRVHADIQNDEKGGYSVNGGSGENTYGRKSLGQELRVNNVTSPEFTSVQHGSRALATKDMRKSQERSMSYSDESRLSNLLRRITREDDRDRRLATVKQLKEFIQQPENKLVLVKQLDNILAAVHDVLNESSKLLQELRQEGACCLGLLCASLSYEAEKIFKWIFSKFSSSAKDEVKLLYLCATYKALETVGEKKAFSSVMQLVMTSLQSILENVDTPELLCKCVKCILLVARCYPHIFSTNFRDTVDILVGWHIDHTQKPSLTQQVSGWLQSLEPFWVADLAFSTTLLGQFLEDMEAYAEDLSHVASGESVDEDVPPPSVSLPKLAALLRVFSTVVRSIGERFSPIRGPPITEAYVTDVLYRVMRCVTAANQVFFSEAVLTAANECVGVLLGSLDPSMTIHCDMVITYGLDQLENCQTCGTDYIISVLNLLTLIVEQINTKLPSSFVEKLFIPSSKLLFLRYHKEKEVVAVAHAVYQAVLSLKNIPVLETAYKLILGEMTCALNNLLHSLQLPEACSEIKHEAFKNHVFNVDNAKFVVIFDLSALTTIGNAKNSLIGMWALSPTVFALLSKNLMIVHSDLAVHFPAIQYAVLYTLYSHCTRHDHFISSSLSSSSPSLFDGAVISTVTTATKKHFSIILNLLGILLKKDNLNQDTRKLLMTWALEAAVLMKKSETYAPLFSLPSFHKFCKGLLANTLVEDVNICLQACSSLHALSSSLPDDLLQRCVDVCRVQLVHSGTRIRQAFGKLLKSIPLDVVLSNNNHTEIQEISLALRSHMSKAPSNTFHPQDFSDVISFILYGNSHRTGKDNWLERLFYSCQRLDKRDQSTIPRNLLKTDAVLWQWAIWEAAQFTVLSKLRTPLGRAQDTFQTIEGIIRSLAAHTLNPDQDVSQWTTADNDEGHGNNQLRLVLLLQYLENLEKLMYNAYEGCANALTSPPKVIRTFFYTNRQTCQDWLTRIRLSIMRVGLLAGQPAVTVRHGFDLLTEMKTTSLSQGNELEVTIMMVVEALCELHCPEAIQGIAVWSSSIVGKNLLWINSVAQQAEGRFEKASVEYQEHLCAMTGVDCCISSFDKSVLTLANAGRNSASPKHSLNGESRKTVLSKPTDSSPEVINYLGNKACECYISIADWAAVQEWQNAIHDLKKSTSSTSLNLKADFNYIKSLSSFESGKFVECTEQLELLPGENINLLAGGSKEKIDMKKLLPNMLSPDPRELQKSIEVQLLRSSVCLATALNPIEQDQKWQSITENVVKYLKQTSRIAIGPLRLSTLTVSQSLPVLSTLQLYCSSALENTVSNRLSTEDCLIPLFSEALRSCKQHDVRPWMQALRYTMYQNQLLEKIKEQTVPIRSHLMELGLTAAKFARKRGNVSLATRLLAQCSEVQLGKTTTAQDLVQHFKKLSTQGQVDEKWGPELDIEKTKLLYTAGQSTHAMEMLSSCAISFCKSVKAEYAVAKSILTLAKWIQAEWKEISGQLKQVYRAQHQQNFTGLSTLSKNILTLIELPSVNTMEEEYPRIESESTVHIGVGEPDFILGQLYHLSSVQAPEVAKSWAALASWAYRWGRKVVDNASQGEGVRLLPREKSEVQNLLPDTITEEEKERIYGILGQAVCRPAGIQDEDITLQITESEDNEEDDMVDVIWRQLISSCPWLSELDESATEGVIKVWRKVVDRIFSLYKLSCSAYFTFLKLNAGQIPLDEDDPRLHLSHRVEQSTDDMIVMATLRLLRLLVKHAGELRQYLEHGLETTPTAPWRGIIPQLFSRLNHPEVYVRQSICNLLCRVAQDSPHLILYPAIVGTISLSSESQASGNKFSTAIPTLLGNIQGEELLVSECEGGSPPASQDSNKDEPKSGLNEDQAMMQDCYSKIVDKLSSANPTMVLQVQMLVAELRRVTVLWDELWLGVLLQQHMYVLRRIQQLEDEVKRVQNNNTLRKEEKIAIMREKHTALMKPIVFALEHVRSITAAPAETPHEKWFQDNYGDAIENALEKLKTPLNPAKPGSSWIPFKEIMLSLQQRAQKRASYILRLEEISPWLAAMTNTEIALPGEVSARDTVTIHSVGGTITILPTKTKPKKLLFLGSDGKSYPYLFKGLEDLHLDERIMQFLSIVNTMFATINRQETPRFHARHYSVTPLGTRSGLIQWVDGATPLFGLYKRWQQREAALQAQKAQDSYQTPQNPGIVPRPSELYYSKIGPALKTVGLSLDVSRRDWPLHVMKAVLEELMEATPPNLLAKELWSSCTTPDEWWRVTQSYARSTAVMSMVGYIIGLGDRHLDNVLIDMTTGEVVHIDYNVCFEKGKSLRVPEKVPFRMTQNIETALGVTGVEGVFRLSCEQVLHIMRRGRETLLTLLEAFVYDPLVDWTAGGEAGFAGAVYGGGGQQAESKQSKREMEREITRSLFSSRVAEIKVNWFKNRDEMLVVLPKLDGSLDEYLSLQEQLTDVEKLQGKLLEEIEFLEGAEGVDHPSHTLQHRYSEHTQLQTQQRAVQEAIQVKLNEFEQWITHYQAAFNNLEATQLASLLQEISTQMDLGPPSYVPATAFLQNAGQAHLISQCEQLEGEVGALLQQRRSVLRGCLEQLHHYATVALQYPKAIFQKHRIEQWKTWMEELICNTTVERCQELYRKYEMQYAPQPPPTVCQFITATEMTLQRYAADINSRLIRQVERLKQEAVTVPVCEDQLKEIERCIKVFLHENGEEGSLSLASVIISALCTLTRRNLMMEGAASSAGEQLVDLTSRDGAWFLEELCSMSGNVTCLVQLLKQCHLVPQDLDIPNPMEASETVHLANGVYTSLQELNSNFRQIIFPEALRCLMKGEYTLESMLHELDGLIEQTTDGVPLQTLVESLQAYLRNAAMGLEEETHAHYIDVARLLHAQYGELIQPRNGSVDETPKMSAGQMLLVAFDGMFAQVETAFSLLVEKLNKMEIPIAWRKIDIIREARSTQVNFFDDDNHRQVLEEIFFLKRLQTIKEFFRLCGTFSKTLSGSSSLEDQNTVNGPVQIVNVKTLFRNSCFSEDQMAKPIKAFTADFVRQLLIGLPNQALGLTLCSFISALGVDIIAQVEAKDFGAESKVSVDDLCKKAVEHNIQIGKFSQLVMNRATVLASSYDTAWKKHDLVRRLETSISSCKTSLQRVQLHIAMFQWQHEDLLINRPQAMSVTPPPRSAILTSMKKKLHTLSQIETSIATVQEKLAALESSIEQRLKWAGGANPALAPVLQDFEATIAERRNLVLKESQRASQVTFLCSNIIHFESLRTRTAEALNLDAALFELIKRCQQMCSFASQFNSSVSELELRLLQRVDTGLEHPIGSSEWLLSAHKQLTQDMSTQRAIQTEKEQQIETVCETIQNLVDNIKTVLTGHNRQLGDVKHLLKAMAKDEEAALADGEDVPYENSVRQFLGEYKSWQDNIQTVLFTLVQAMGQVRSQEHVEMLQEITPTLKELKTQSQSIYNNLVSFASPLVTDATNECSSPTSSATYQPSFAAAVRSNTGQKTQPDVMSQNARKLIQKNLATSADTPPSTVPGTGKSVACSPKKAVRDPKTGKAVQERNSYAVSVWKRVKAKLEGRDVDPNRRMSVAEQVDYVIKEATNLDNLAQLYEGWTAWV

Structure (SMILES)	IC50 (human SMG-1 (hSMG-1))	IC50 (Human mTOR)	IC50 (PI3K-gamma)	IC50 (PI3K-alpha)
Cn1ccc2c3nc(-c4cccc(NC(=O)C5CC5)c4)nc(N4CCOCC4)c3ccc21 [Example 125, N-[3-(7-methyl-4-morpholin-4-yl-7H-pyrrolo[2,3-h]quinazolin-2-yl)phenyl]cyclopropanecarboxamide]	> 20 µM	1.3 µM		
CCCC(=O)Nc1cccc(-c2nc(N3CCOCC3)c3ccc4c(ccn4C)c3n2)c1 [Example 126, N-[3-(7-methyl-4-morpholin-4-yl-7H-pyrrolo[2,3-h]quinazolin-2-yl)phenyl]butanamide]	> 20 µM	1.9 µM		
CCOC(=O)Nc1cccc(-c2nc(N3CCOCC3)c3ccc4c(ccn4C)c3n2)c1 [Example 124, ethyl [3-(7-methyl-4-morpholin-4-yl-7H-pyrrolo[2,3-h]quinazolin-2-yl)phenyl]carbamate]	> 20 µM	1.9 µM		
CCCC(=O)Nc1ccc(-c2nc(N3CCOCC3)c3ccc4c(ccn4CCN(C)C)c3n2)cc1 [Example 97, N-(4-{7-[2-(dimethylamino)ethyl]-4-morpholin-4-yl-7H-pyrrolo[2,3-h]quinazolin-2-yl}phenyl)butanamide]	> 20 µM	6.2 µM		
CCCOC(=O)Nc1ccc(-c2nc(N3CCOCC3)c3ccc4c(ccn4S(C)(=O)=O)c3n2)cc1 [Example 109, propyl {4-[7-(methylsulfonyl)-4-morpholin-4-yl-7H-pyrrolo[2,3-h]quinazolin-2-yl]phenyl}carbamate]	> 20 µM	2.05 µM		
Cn1ccc2c3nc(-c4ccc(NC(=O)NC5CCCCC5)cc4)nc(N4CCOCC4)c3ccc21 [Example 108, 1-cyclohexyl-3-[4-(7-methyl-4-morpholin-4-yl-7H-pyrrolo[2,3-h]quinazolin-2-yl)phenyl]urea]	> 20 µM	7.25 µM		
Cc1noc(C)c1NC(=O)Nc1ccc(-c2nc(N3CCOCC3)c3ccc4c(ccn4C)c3n2)cc1 [Example 116, 1-(3,5-dimethylisoxazol-4-yl)-3-[4-(7-methyl-4-morpholin-4-yl-7H-pyrrolo[2,3-h]quinazolin-2-yl)phenyl]urea]	> 20 µM	1.27 µM		
CN(C)CCn1ccc2c3nc(-c4ccc(NC(=O)C5CC5)cc4)nc(N4CCOCC4)c3ccc21 [Example 96, N-(4-{7-[2-(dimethylamino)ethyl]-4-morpholin-4-yl-7H-pyrrolo[2,3-h]quinazolin-2-yl}phenyl)cyclopropanecarboxamide]	> 20 µM	5.25 µM		
COCCNC(=O)Nc1ccc(-c2nc(N3CCOCC3)c3ccc4c(ccn4C)c3n2)cc1 [Example 101, 1-(2-methoxyethyl)-3-[4-(7-methyl-4-morpholin-4-yl-7H-pyrrolo[2,3-h]quinazolin-2-yl)phenyl]urea]	> 20 µM	1.8 µM		
Cn1ccc2c3nc(-c4ccc(NC(=O)NC5CCCC5)cc4)nc(N4CCOCC4)c3ccc21 [Example 105, 1-cyclopentyl-3-[4-(7-methyl-4-morpholin-4-yl-7H-pyrrolo[2,3-h]quinazolin-2-yl)phenyl]urea]	> 20 µM	2.05 µM		
O=S(=O)(c1ccccc1)n1ccc2c3nc(-c4cccc5[nH]ncc45)nc(N4CCOCC4)c3ccc21 [Example 72, 2-(1H-indazol-4-yl)-4-morpholin-4-yl-7-(phenylsulfonyl)-7H-pyrrolo[2,3-h]quinazoline]		3.25 µM	5.16 µM	4.01 µM
CNC(=O)Nc1ccc(-c2nc(N3CCOCC3)c3ccc4c(ccn4C)c3n2)cc1 [Example 2, 1-methyl-3-[4-(7-methyl-4-morpholin-4-yl-7H-pyrrolo[2,3h]quinazolin-2-yl)phenyl]urea]		0.066 µM	5.39 µM	0.428 µM
O=C(Nc1ccncc1)Nc1ccc(-c2nc(N3CCOCC3)c3ccc4c(ccn4S(=O)(=O)C4CCN(C(=O)OCc5ccccc5)CC4)c3n2)cc1 [Example 61, benzyl 4-[(4-morpholin-4-yl-2-{4-[(pyridin-4-ylcarbamoyl)amino]phenyl}-7H-pyrrolo[2,3-h]quinazolin-7-yl)sulfonyl]piperidine-1-carboxylate]		0.13 µM	3.49 µM	0.384 µM

Further lines, results first:

IC50 (human SMG-1 (hSMG-1))	IC50 (Human mTOR)	IC50 (PI3K-gamma)	IC50 (PI3K-alpha)	Structure (SMILES)
> 20 µM				CCOC(=O)Nc1ccc(-c2nc(N3CCOCC3)c3ccc4c(ccn4CCN(C)C)c3n2)cc1 [Example 93, ethyl (4-{7-[2-(dimethylamino)ethyl]-4-morpholin-4-yl-7H-pyrrolo[2,3-h]quinazolin-2-yl}phenyl)carbamate]
> 20 µM	1.5 µM			CCC(=O)Nc1cccc(-c2nc(N3CCOCC3)c3ccc4c(ccn4C)c3n2)c1 [Example 129, N-[3-(7-methyl-4-morpholin-4-yl-7H-pyrrolo[2,3-h]quinazolin-2-yl)phenyl]propanamide]
4.25 µM	0.47 µM			CC(=O)c1ccc(NC(=O)Nc2ccc(-c3nc(N4CCOCC4)c4ccc5c(ccn5C)c4n3)cc2)cc1 [Example 115, 1-(4-acetylphenyl)-3-[4-(7-methyl-4-morpholin-4-yl-7H-pyrrolo[2,3-h]quinazolin-2-yl)phenyl]urea]
15.5 µM	1.5 µM			CCCNC(=O)Nc1cccc(-c2nc(N3CCOCC3)c3ccc4c(ccn4C)c3n2)c1 [Example 127, 1-[3-(7-methyl-4-morpholin-4-yl-7H-pyrrolo[2,3-h]quinazolin-2-yl)phenyl]-3-propylurea]
> 20 µM				CCCC(=O)Nc1ccc(-c2nc(N3CCOCC3)c3ccc4c(ccn4S(C)(=O)=O)c3n2)cc1 [Example 88, N-{4-[7-(methylsulfonyl)-4-morpholin-4-yl-7H-pyrrolo[2,3-h]quinazolin-2-yl]phenyl}butanamide]
1.8 µM	0.05 µM			CN(C)CCn1ccc2c3nc(-c4ccc(NC(=O)Nc5ccccc5)cc4)nc(N4CCOCC4)c3ccc21 [Example 95, 1-(4-{7-[2-(dimethylamino)ethyl]-4-morpholin-4-yl-7H-pyrrolo[2,3-h]quinazolin-2-yl}phenyl)-3-phenylurea]
16.5 µM	1.5 µM			Cn1ccc2c3nc(-c4ccc(NC(=O)NC5CCC5)cc4)nc(N4CCOCC4)c3ccc21 [Example 106, 1-cyclobutyl-3-[4-(7-methyl-4-morpholin-4-yl-7H-pyrrolo[2,3-h]quinazolin-2-yl)phenyl]urea]
5.6 µM				CS(=O)(=O)n1ccc2c3nc(-c4ccc(NC(=O)C5CC5)cc4)nc(N4CCOCC4)c3ccc21 [Example 87, N-{4-[7-(methylsulfonyl)-4-morpholin-4-yl-7H-pyrrolo[2,3-h]quinazolin-2-yl]phenyl}cyclopropanecarboxamide]
15.5 µM				CCOC(=O)Nc1ccc(-c2nc(N3CCOCC3)c3ccc4c(ccn4S(C)(=O)=O)c3n2)cc1 [Example 86, ethyl {4-[7-(methylsulfonyl)-4-morpholin-4-yl-7H-pyrrolo[2,3-h]quinazolin-2-yl]phenyl}carbamate]
2 µM				CCNC(=O)Nc1ccc(-c2nc(N3CCOCC3)c3ccc4c(ccn4CCN(C)C)c3n2)cc1 [Example 94, 1-(4-{7-[2-(dimethylamino)ethyl]-4-morpholin-4-yl-7H-pyrrolo[2,3-h]quinazolin-2-yl}phenyl)-3-ethylurea]
15 µM	0.625 µM			Cn1ccc2c3nc(-c4ccc(NC(=O)NCCF)cc4)nc(N4CCOCC4)c3ccc21 [Example 118, 1-(2-fluoroethyl)-3-[4-(7-methyl-4-morpholin-4-yl-7H-pyrrolo[2,3-h]quinazolin-2-yl)phenyl]urea]
5.25 µM				CC(=O)Nc1ccc(-c2nc(N3CCOCC3)c3ccc4c(ccn4S(C)(=O)=O)c3n2)cc1 [Example 92, N-{4-[7-(methylsulfonyl)-4-morpholin-4-yl-7H-pyrrolo[2,3-h]quinazolin-2-yl]phenyl}acetamide]
5.5 µM	2.55 µM			Cn1ccc2c3nc(-c4cccc(NC(=O)Nc5cccnc5)c4)nc(N4CCOCC4)c3ccc21 [Example 123, 1-[3-(7-methyl-4-morpholin-4-yl-7H-pyrrolo[2,3-h]quinazolin-2-yl)phenyl]-3-pyridin-3-ylurea]
6.5 µM				Cn1ccc2c3nc(-c4cccc(NC(=O)Nc5ccncc5)c4)nc(N4CCOCC4)c3ccc21 [Example 122, 1-[3-(7-methyl-4-morpholin-4-yl-7H-pyrrolo[2,3-h]quinazolin-2-yl)phenyl]-3-pyridin-4-ylurea]
14.5 µM	0.215 µM			CC(C)NC(=O)Nc1ccc(-c2nc(N3CCOCC3)c3ccc4c(ccn4C)c3n2)cc1 [Example 99, 1-(1-methylethyl)-3-[4-(7-methyl-4-morpholin-4-yl-7H-pyrrolo[2,3-h]quinazolin-2-yl)phenyl]urea]
> 17 µM	1.5 µM			Cn1ccc2c3nc(-c4ccc(NC(=O)NCC5CCCO5)cc4)nc(N4CCOCC4)c3ccc21 (stereo not drawn) [Example 102, 1-[4-(7-methyl-4-morpholin-4-yl-7H-pyrrolo[2,3-h]quinazolin-2-yl)phenyl]-3-(tetrahydrofuran-2-ylmethyl)urea]
6.1 µM				CCC(=O)Nc1ccc(-c2nc(N3CCOCC3)c3ccc4c(ccn4S(C)(=O)=O)c3n2)cc1 [Example 91, N-{4-[7-(methylsulfonyl)-4-morpholin-4-yl-7H-pyrrolo[2,3-h]quinazolin-2-yl]phenyl}propanamide]
0.475 µM				CS(=O)(=O)n1ccc2c3nc(-c4ccc(NC(=O)Nc5ccccc5)cc4)nc(N4CCOCC4)c3ccc21 [Example 84, 1-{4-[7-(methylsulfonyl)-4-morpholin-4-yl-7H-pyrrolo[2,3-h]quinazolin-2-yl]phenyl}-3-phenylurea]
5.6 µM				COC(=O)Nc1ccc(-c2nc(N3CCOCC3)c3ccc4c(ccn4S(C)(=O)=O)c3n2)cc1 [Example 90, methyl {4-[7-(methylsulfonyl)-4-morpholin-4-yl-7H-pyrrolo[2,3-h]quinazolin-2-yl]phenyl}carbamate]
